IC50 data for six compounds are collected here from patent US7659244B2, “Rapamycin peptides conjugates: synthesis and uses thereof” (Quest Pharmatech, Inc., priority 2004, dated 2010).

Read-outs that look alike come from different tables or passages of the source.

For assay [1], the system named is SKOV-3.
Description: (§1) Quantification of cell proliferation and cell viability was determined by measuring the amount of radioactive [^3H-methyl]-thymidine incorporated into DNA.
(§2) Cell culture: For each cell line, culture was carried according to the ATCC Product Information Sheet provided. Cell lines were always freshly thawed prior to each experiment. For all experiments exponentially growing cells were harvested and centrifuged at 1100 rpm, the spent medium was aspirated and cell pellets were resuspended in fresh complete medium. Viable cells were enumerated by trypan blue exclusion using a hemacytometer.
(§3) Cells were then seeded in 96 well tissue culture plates in a total volume of 100 μL/well. A preliminary experiment should be performed to determine the most appropriate cell density for each individual cell line. Cells were allowed to attach and acclimate overnight.
(§4) Addition of test compounds: Each test compound was dissolved in DMSO at a final concentration of 2 mM. Each stock compound was then diluted in complete medium (1:100) to obtain a 20 μM working solution. The working solution was used for further serial dilutions to obtain concentrations of 200 nM, 20 nM, 2 nM, 0.2 nM and 0.02 nM. 100 μL of each dilution was added to the 100 μL cell cultures (3 replicates),. to give final test concentrations of 100 nM, 10 nM, 1 nM, 0.1 nM and 0.01 nM. Using this system of dilutions, the maximum concentration of DMSO to which the cells were exposed was 0.01% v/v. Therefore, 0.01% DMSO was added to control cells to which no test compounds was added. On each plate two positive controls were included: Adriamycin Hydrochloride and Rapamycin. For each positive control 3 concentrations were chosen in a range that achieved an LC50, this range is cell line specific and must be predetermined in a pilot experiment. Plates were incubated for 96 hours prior to harvesting. [^3H-methyl]-thymidine incorporation: After 80 hours incubation, 10 μL (0.5 μCi) of [^3H-methyl]-thymidine diluted in 1× HBSS was added and plates were incubated overnight.
(§5) Growth medium was removed from each well and 100 uL of Trypsin-EDTA was added. The plate was incubated at 37° C. until cells were trypsinized (check under microscope). The detached cells were harvested using a semiautomatic cell harvester. Filters were dried prior to addition to scintillation vials. two mL of scintillation fluid was automatically dispensed into each vial and counting was effected on program 1 (^3H, 1 min, DPM).
(§6) The average and standard error from the DPM counts of replicate samples were calculated.
Assay [2] has as its system Lncap.
Description: as §1, §2, §3, §4, §5, §6
Assay [3] has as its system D341.
Description: as §1, §2, §3, §4, §5, §6
Assay [4] relates to MCF-7.
Description: as §1, §2, §3, §4, §5, §6
In assay [5] the test system is SKMEL-2.
Description: as §1, §2, §3, §4, §5, §6
For assay [6], the system named is OVCAR-3.
Description: as §1, §2, §3, §4, §5, §6
The test system of assay [7] is SK-N-SH.
Description: as §1, §2, §3, §4, §5, §6
The test system of assay [8] is A431.
Description: as §1, §2, §3, §4, §5, §6
The test system of assay [9] is LS174T. As to conditions: read-out: Inhibition of H^3 Thymidine uptake (IC50 in nM); LS174T cells, 96 hours incubation.
Description: as §1, §2, §3, §4, §5, §6
The mark [10] stands for this setting: read-out: Inhibition of H^3 Thymidine uptake (IC50 in nM), SKOV-3 cells, 96 hours incubation.
Where [11] appears, read: read-out: Inhibition of H^3 Thymidine uptake (IC50 in nM), Lncap cells, 96 hours incubation.
[12] abbreviates: read-out: Inhibition of H^3 Thymidine uptake (IC50 in nM), D341 cells, 96 hours incubation.
Setting [13] is: read-out: Inhibition of H^3 Thymidine uptake (IC50 in nM), MCF-7 cells, 96 hours incubation.
The mark [14] stands for this setting: read-out: Inhibition of H^3 Thymidine uptake (IC50 in nM), SKMEL-2 cells, 96 hours incubation.
Setting [15] is: read-out: Inhibition of H^3 Thymidine uptake (IC50 in nM), OVCAR-3 cells, 96 hours incubation.
[16] abbreviates: read-out: Inhibition of H^3 Thymidine uptake (IC50 in nM), SK-N-SH cells, 96 hours incubation.
Setting [17] is: read-out: Inhibition of H^3 Thymidine uptake (IC50 in nM), A431 cells, 96 hours incubation.

Broadly, the IC50 is the concentration needed to halve the response being measured. As for `CC[C@H](C)[C@H](NC(=O)[C@@H](CC(C)C)NC(=O)O[C@@H]1CC[C@@H](C[C@@H](C)[C@@H]2CC(=O)[C@H](C)/C=C(\C)[C@@H](O)[C@@H](OC)C(=O)[C@H](C)C[C@H](C)/C=C/C=C/C=C(\C)[C@@H](OC)C[C@@H]3CC[C@@H](C)[C@@](O)(O3)C(=O)C(=O)N3CCCC[C@H]3C(=O)O2)C[C@H]1OC)C(=O)N[C@H](CO)Cc1ccccc1` [Compound 7d, Rapamycin-42-O-ester-(NH-D-Leu-L-Ile-S-Phe-CH2OH)], the IC50 in assay [1] (96 h) stood at 94.3 nM; in assay [2] (96 h), 198 nM; in [3] (96 h) it was 140 nM; in assay [4] (96 h) it was 52.2 nM; in assay [5] (96 h), 358 nM; in assay [6] (96 h) it was 343 nM. Also, the 50% inhibitory concentration (IC50) in assay [7] (96 h) worked out at 137 nM; in assay [8] (96 h), 12700 nM.

As for `CO[C@H]1C[C@@H]2CC[C@@H](C)[C@@](O)(O2)C(=O)C(=O)N2CCCC[C@H]2C(=O)O[C@H]([C@H](C)C[C@@H]2CC[C@@H](OC(=O)N[C@H](CO)Cc3ccccc3)[C@H](OC)C2)CC(=O)[C@H](C)/C=C(\C)[C@@H](O)[C@@H](OC)C(=O)[C@H](C)C[C@H](C)/C=C/C=C/C=C/1C` [Compound 7j, Rapamycin-42-O-ester-(S) (−)-2-amino-3-phenyl-1-propanol], the IC50 was 55.9 nM in assay [1] (setting [10]); 166 nM in assay [2] (setting [11]); 106 nM in assay [3] (setting [12]); 15.3 nM in assay [4] (setting [13]); 157 nM in assay [5] (setting [14]); 264 nM in assay [6] (setting [15]). Moreover, the IC50 came to 80 nM in [7] (setting [16]) and 506 nM in [8] (setting [17]).

`COC1CC2CCC(C)C(O)(O2)C(=O)C(=O)N2CCCCC2C(=O)OC(C(C)CC2CCC(OC(=O)NC(CO)CC(C)C)C(OC)C2)CC(=O)C(C)C=C(C)C(O)C(OC)C(=O)C(C)CC(C)C=CC=CC=C1C` [Compound 7s, Rapamycin-42-O-ester-(R)-(−)-2-amino-4-methyl pentanol]: the IC50 in assay [1] (setting [10]) stood at 93.6 nM; in assay [2] (setting [11]) it was 189 nM; in assay [3] (setting [12]), 103 nM; in [4] (setting [13]) it was 15.6 nM; in assay [5] (setting [14]), 154 nM; in assay [6] (setting [15]), 355 nM. Further, the 50% inhibitory concentration (IC50) in [7] (setting [16]) is 97.3 nM; in assay [8] (setting [17]), 625 nM.

For the compound `CO[C@H]1C[C@@H]2CC[C@@H](C)[C@@](O)(O2)C(=O)C(=O)N2CCCC[C@H]2C(=O)O[C@H]([C@H](C)C[C@@H]2CC[C@@H](OC(=O)CCC(=O)N[C@H](CO)Cc3ccccc3)[C@H](OC)C2)CC(=O)[C@H](C)/C=C(\C)[C@@H](O)[C@@H](OC)C(=O)[C@H](C)C[C@H](C)/C=C/C=C/C=C/1C` [Compound 7v, Rapamycin-42-O-(3-carboxypropanoyl) ester-(S) (−)-2-amino-3-phenyl-1-propanol], the concentration for half-maximal inhibition (IC50) in assay [1] (setting [10]) was found to be 10.4 nM; in assay [2] (setting [11]), 48.3 nM; in assay [3] (setting [12]), 15 nM; in assay [4] (setting [13]), 5.52 nM; in assay [5] (setting [14]), 81 nM; in assay [6] (setting [15]), 95.5 nM. Besides, the IC50 in assay [7] (setting [16]) was determined as 18.8 nM; in assay [8] (setting [17]), 1030 nM.

As to `COC(=O)C(NC(=O)O[C@@H]1CC[C@@H](C[C@@H](C)[C@@H]2CC(=O)[C@H](C)/C=C(\C)[C@@H](O)[C@@H](OC)C(=O)[C@H](C)C[C@H](C)/C=C/C=C/C=C(\C)[C@@H](OC)C[C@@H]3CC[C@@H](C)[C@@](O)(O3)C(=O)C(=O)N3CCCC[C@H]3C(=O)O2)C[C@H]1OC)C(=O)OC` [Compound 7w], the half-maximal inhibitory concentration (IC50) in assay [1] (setting [10]) is 26.5 nM; in [2] (setting [11]) it was 83.5 nM; in [4] (setting [13]) it was 103 nM; in assay [9], 859 nM; in assay [5] (setting [14]), 378 nM; in assay [7] (setting [16]), 164 nM.

For the compound `CO[C@H]1C[C@@H]2CC[C@@H](C)[C@@](O)(O2)C(=O)C(=O)N2CCCC[C@H]2C(=O)O[C@H]([C@H](C)C[C@@H]2CC[C@@H](OC(=O)NC3C(=O)OC(C)(C)OC3=O)[C@H](OC)C2)CC(=O)[C@H](C)/C=C(\C)[C@@H](O)[C@@H](OC)C(=O)[C@H](C)C[C@H](C)/C=C/C=C/C=C/1C` [Compound 7x], the IC50 in assay [1] (setting [10]) was found to be 3.4 nM; in assay [2] (setting [11]) it was 3.32 nM; in [4] (setting [13]) it was 7.09 nM; in assay [9], 433 nM; in assay [5] (setting [14]) it was 113 nM; in assay [7] (setting [16]) it was 11.3 nM.
